Experimental data reported in patent US10647693B2, “Inhibitors of influenza virus replication, application methods and uses thereof” (SUNSHINE LAKE PHARMA CO., LTD., priority 2016, dated 2020).

Tests used:
virus H1N1 A/Weiss/43 = test: microbe, parasite or virus in culture; assay type: cell-based; settings: Influenza A virus, 120 h; inhibition of CPE caused by A/Weiss/43(H1N1) in MDCK cells, 5 days, CCK-8
[1] = SD, rat, in vivo, po, 5 mg/kg
Protocol: (§1) Pharmacokinetic characteristics of the compound of the invention in SD rat were evaluated. The compounds disclosed herein were administered in form of a saline solution containing 5% DMSO, 5% Kolliphor HS 15 and 90% Saline. For intravenous administration (i.v.), the animals were administered with a dose of 1 mg/kg, and blood samples (0.3 mL) were collected at the time points of 0.083, 0.25, 0.5, 1.0, 2.0, 5.0, 7.0 and 24 h after drug administration, then each blood sample was processed to separate plasma by centrifugation at 3000 rpm or 4000 rpm for 10 minutes. For oral administration (p.o.), the animals were administered with a dose of 5 mg/kg, and blood samples (0.3 mL) were collected at the time points of 0.25, 0.5, 1.0, 2.0, 5.0, 7.0 and 24 h after drug administration, then each blood sample was processed to separate plasma by centrifugation at 3000 rpm or 4000 rpm for 10 minutes. Plasma samples were collected and stored at −20° C. or −70° C. until LC/MS/MS analysis.

in vivo = settings: SD, rat
Protocol: as §1

| SMILES | EC50 (virus H1N1 A/Weiss/43) | F [1] | AUC(0-inf) (in vivo; iv, 1 mg/kg) | AUC(0-t) (in vivo; iv, 1 mg/kg) | Cmax (in vivo; iv, 1 mg/kg) | Tmax (in vivo; iv, 1 mg/kg) | Vd (in vivo; iv, 1 mg/kg) | clearance (in vivo; iv, 1 mg/kg) | half-life (in vivo; iv, 1 mg/kg) | AUC(0-inf) (in vivo; po, 5 mg/kg) | AUC(0-t) (in vivo; po, 5 mg/kg) | Cmax (in vivo; po, 5 mg/kg) | Tmax (in vivo; po, 5 mg/kg) | half-life (in vivo; po, 5 mg/kg) |
| --- | --- | --- | --- | --- | --- | --- | --- | --- | --- | --- | --- | --- | --- | --- |
| Cn1cc(-c2c(F)c(N[C@H]3C4CCC(CC4)[C@@H]3C(=O)O)nc(-c3c[nH]c4c(F)cc(F)cc34)c2C#N)cn1 [Example 12a, (2S,3S)-3-((5-cyano-6-(5,7-difluoro-1H-indol-3-yl)-3-fluoro-4-(1-methyl-1H-pyrazol-4-yl)pyridin-2-yl)amino)bicyclo[2.2.2]octane-2-carboxylic Acid] | 0.96 nM | – | – | – | – | – | – | – | – | – | – | – | – | – |
| N#Cc1c(-c2c[nH]c3c(F)cc(F)cc23)nc(NC2C3CCC(CC3)C2C(=O)O)c(F)c1-c1ccccc1 (racemic) [Example 14, (+/−)-trans-3-((5-cyano-6-(5,7-difluoro-1H-indol-3-yl)-3-fluoro-4-phenylpyridin-2-yl)amino)bicyclo[2.2.2]octane-2-carboxylic Acid] | 10.5 nM | 74.6% | 3520 ng·h/mL | 3450 ng·h/mL | 4130 ng/mL | 4.98 min | 0.432 L/kg | 5.12 mL/min/kg | 78.6 min | 10300 ng·h/mL | 10100 ng·h/mL | 2980 ng/mL | 73.2 min | 87.6 min |
| N#Cc1c(-c2c[nH]c3ncc(F)cc23)nc(NC2C3CCC(CC3)C2C(=O)O)c(F)c1C1CC1 (racemic) [Example 9, (+/−)-trans-3-((5-cyano-4-cyclopropyl-3-fluoro-6-(5-fluoro-1H-pyrrolo[2,3-b]pyridin-3-yl)pyridin-2-yl)amino)bicyclo[2.2.2]octane-2-carboxylic Acid] | 0.49 nM | 65.2% | 2710 ng·h/mL | 2640 ng·h/mL | 3640 ng/mL | 4.98 min | 0.551 L/kg | 5.46 mL/min/kg | 129 min | 8230 ng·h/mL | 8140 ng·h/mL | 2850 ng/mL | 27.6 min | 203 min |
| Cn1ccc2c(NC3C4CCC(CC4)C3C(=O)O)nc(-c3c[nH]c4ncc(F)cc34)cc21 (racemic) [Example 20, (+/−)-trans-3-((6-(5-fluoro-1H-pyrrolo[2,3-b]pyridin-3-yl)-1-methyl-1H-pyrrolo[3,2-c]pyridin-4-yl)amino)bicyclo[2.2.2]octane-2-carboxylic Acid] | 2.58 nM | – | – | – | – | – | – | – | – | – | – | – | – | – |
| N#Cc1c(-c2c[nH]c3c(F)cc(F)cc23)nc(NC2C3CCC(CC3)C2C(=O)O)c(F)c1-c1ccc(C(F)(F)F)cc1 (racemic) [Example 3, (+/−)-trans-3-((5-cyano-6-(5,7-difluoro-1H-indol-3-yl)-3-fluoro-4-(4-trifluoromethylphenyl)pyridin-2-yl)amino)bicyclo[2.2.2]octane-2-carboxylic Acid] | – | 104.6% | 2620 ng·h/mL | 2580 ng·h/mL | 4340 ng/mL | 4.98 min | 1.98 L/kg | 7.18 mL/min/kg | 67.8 min | 13100 ng·h/mL | 12600 ng·h/mL | 8860 ng/mL | 21 min | 106 min |
| N#Cc1c(-c2c[nH]c3c(F)cc(F)cc23)nc(NC2C3CCC(CC3)C2C(=O)O)c(F)c1-c1ccco1 (racemic) [Example 1, (+/−)-trans-3-((5-cyano-6-(5,7-difluoro-1H-indol-3-yl)-3-fluoro-4-(furan-2-yl)pyridin-2-yl)amino)bicyclo[2.2.2]octane-2-carboxylic Acid] | 0.27 nM | 83.9% | 5710 ng·h/mL | 5680 ng·h/mL | 6560 ng/mL | 4.98 min | 0.231 L/kg | 3.86 mL/min/kg | 74.4 min | 21600 ng·h/mL | 21300 ng·h/mL | 5780 ng/mL | 66 min | 91.2 min |
| N#Cc1c(-c2c[nH]c3c(F)cc(F)cc23)nc(NC2C3CCC(CC3)C2C(=O)O)c(F)c1C1CC1 (racemic) [Example 8, (+/−)-trans-3-((5-cyano-4-cyclopropyl-6-(5,7-difluoro-1H-indol-3-yl)-3-fluoropyridin-2-yl)amino)bicyclo[2.2.2]octane-2-carboxylic Acid] | 5.09 nM | – | – | – | – | – | – | – | – | – | – | – | – | – |
